One data set in a line: In vivo pharmacokinetics. Set-up: species or system mouse. Conditions: for T-half / AUC(0-inf) / Cmax / Oral Bioavailability (AUCp.o./AUCi.v.): 5 mg/kg; for T-half / AUC(0-inf) / Cmax / Oral Bioavailability (AUCp.o./AUCi.v.) / time plasma concentrations exceed those sufficient for induction of SWELL1 signaling activity (>~100 nM): mice; for T-half / AUC(0-inf) / Cmax: plasma; for AUC(0-inf) / Cmax: male, C57/BL6, mouse; for time plasma concentrations exceed those sufficient for induction of SWELL1 signaling activity (>~100 nM): 5 mg/kg i.p. or p.o. How it is done:
Male C57/BL6 mice were used in the study and assessed for a single dose (5 mg/kg) administration. The compounds were prepared in Cremaphor for i.p. and p.o dose routes and in 5% ethanol, 10% Tween-20, and water mix for i.v. route at a final concentration of 1 mg/mL. […] The blood samples were collected in tubes with K2 EDTA anticoagulant and further processed to collect plasma by centrifugation at 1383×g at 5 °C for 10 min. Samples were further processed in LC/MS to determine the concentration of the compounds. Non-compartmental analysis was performed to obtain the PK parameters using the PKPlus software package (Simulation Plus). The area under the plasma concentration-time curve (AUCinf) was calculated from time 0 to infinity where the Cmax is the maximal concentration achieved in plasma and t1/2 is the terminal elimination half-life. Oral bioavailability was calculated as AUCOral/AUCIV*100.

The test system of data set [1] is endogenous SWELL1 in 3T3-F442A preadipocytes. The experiment in a line: SWELL1 plasma membrane localization, immunofluorescence. Type of data set: cell-based, murine. The following applies: 1 or 10 µM, 48 h, vs vehicle or Inactive 1. How it is done:
3T3-F442A preadipocytes (WT, KO) and differentiated adipocytes without or with SWELL1 overexpression (WT + SWELL1 O/E, KO + SWELL1 O/E) were prepared as described in the Cell culture section on collagen-coated coverslips. […] The cells were fixed in ice-cold acetone for 15 min at −20 °C and then washed four times with 1XPBS. […] Either anti-SWELL1 (1:400) or anti-Flag (1:1500, Sigma #F3165) antibody was added to the cells and incubated overnight at 4 °C. The cells were then washed three times (1XPBS) prior to and after the addition of 1:1000 Alexa Fluor 488/568 secondary antibody (anti-rabbit, #A11034 or anti-mouse, #A11004) for 1 h at RT. Cells were counterstained with nuclear TO-PRO-3 (Life Technologies, #T3605) or DAPI (Invitrogen, #D1306) staining (1 µM) for 20 min followed by three washes with 1XPBS. Coverslips were further mounted on slides with ProLong Diamond anti-fading media. All images were captured using Zeiss LSM700/LSM510 confocal microscope with 63X objective (NA 1.4). SWELL1 membrane localization was quantified by stacking all the z-images and converting it into a binary image where the cytoplasmic intensity per unit area was subtracted from the total cell intensity per unit area using ImageJ software.

Data set [2] concerns pancreatic islets of T2D mice. The data set is described as follows: Insulin secretion of treated T2D mice (serum insulin, islet perifusion GSIS). In kind it is in vivo, mouse. How it is done: Mice were fasted for 6 h prior to glucose tolerance tests (GTT). Baseline glucose levels at 0 min timepoint (fasting glucose, FG) were measured from a blood sample collected from tail snipping using glucometer (Bayer Healthcare LLC). Either 1 or 0.75 g D-Glucose/kg body weight were injected (i.p.) for lean or HFD mice, respectively and glucose levels were measured at 5 or 7, 15, 30, 60, 90, and 120 min timepoints after injection. For insulin tolerance tests (ITTs), the mice were fasted for 4 h. Similar to GTTs, the baseline blood glucose levels were measured at 0 min timepoint and 15, 30, 60, 90, and 120 min timepoints post-injection (i.p.) of insulin (HumulinR, 1 U/kg bodyweight for lean mice or 1.25 U/kg body weight for HFD mice). […] The collected plasma was then measured for insulin content by using Ultra-Sensitive Mouse Insulin ELISA Kit (Crystal Chem, #90080). All mouse studies were performed in a blinded fashion.

The subject of the next data set is ICl,SWELL. Set-up: method as in PMID 11724753. The following applies: cited from earlier work.
Details of data set [3]: method as in PMID 3306216. Conditions: cited from earlier work.
Another data set has as its system T2D KKAy mice. The data set is described as follows: Plasma adiponectin and FGF21 ELISA. In kind it is in vivo, mouse. Conditions: 5 mg/kg i.p. daily × 5 days, vs vehicle. How it is done:
Plasma adiponectin and FGF21 levels were measured using Mouse Adiponectin/Acrp30 Quantikine ELISA (Bio-Techne R&D Systems, MRP300) and mouse/rat FGF21 ELISA (BioVendor R&D, RD291108200R) kits respectively, as per the manufacturer’s instructions.

Molecules are shown by their SMILES. Where “and” joins values, the source holds several entries; their conditions need not be identical. Equal entries are not always repeated. Entries after “also recorded” stand apart in the source; their conditions may differ.

Regarding `CCCCC1(C2CCCC2)Cc2cc(OCCCCCC(=O)O)c(Cl)c(Cl)c2C1=O` (stereo not shown) [SN-406, 6-((2-butyl-6,7-dichloro-2-cyclopentyl-1-oxo-2,3-dihydro-1H-inden-5-yl)oxy)hexanoic acid], the T-half in “In vivo pharmacokinetics” (Intraperitoneal) was 1.809 h. Further, in “In vivo pharmacokinetics” (Intravenous), the T-half is reported as 0.7689 h, the total exposure AUC(0-inf) was determined as 6530 ng·h/mL and the peak level (Cmax) was 15100 ng/mL. In “In vivo pharmacokinetics” (Oral), this compound displayed a T-half of 2.058 h, an AUC(0-inf) of 3130 ng·h/mL and a Cmax of 661 ng/mL. In the data set “In vivo pharmacokinetics” (ip, Intraperitoneal), this compound displayed an AUC(0-inf) of 18200 ng·h/mL and a Cmax of 4300 ng/mL. In addition, in “In vivo pharmacokinetics”, the “Oral Bioavailability (AUCp.o./AUCi.v.)” value came out at 48% and the “time plasma concentrations exceed those sufficient for induction of SWELL1 signaling activity (>~100 nM)” value is 8 to 12 h. Also, the “plasma membrane (PM) localization of endogenous SWELL1” value in data set [1] is listed as “enhanced”. Also, the “insulin secretion in perifusion GSIS” value in data set [2] (islets of HFD-T2D mice, compared to Inactive 1) is given as “significantly augmented”.

With `CCCCC1(C2CCCC2)Cc2cc(OCCCC(=O)O)c(Cl)c(Cl)c2C1=O` (stereo not shown) [SN-401, 4-((2-butyl-6,7-dichloro-2-cyclopentyl-1-oxo-2,3-dihydro-1H-inden-5-yl)oxy)butanoic acid], in the data set with ICl,SWELL, the IC50 was ~5 µM. For the same compound, in data set [3], the diuretic activity result is “minimal diuretic activity”. This compound also returned a T-half in “In vivo pharmacokinetics” (Intraperitoneal) of 2.056 h. In addition, in “In vivo pharmacokinetics” (Intravenous), the T-half is listed as 1.428 h, the AUC(0-inf) was 5960 ng·h/mL and the Cmax is 5440 ng/mL. In the data set “In vivo pharmacokinetics” (Oral), the T-half is given as 2.585 h, the AUC(0-inf) is 4680 ng·h/mL and the Cmax stood at 781 ng/mL. For the same compound, the “PK in adipose tissue” value in “In vivo pharmacokinetics” (iWAT, 5 mg/kg i.p. and p.o.) is “closely tracks serum concentrations”. In “In vivo pharmacokinetics” (ip, Intraperitoneal), the total exposure AUC(0-inf) stood at 23000 ng·h/mL and the highest level (Cmax) was 4370 ng/mL. Moreover, in “In vivo pharmacokinetics”, the “Oral Bioavailability (AUCp.o./AUCi.v.)” value came to 79% and the “time plasma concentrations exceed those sufficient for induction of SWELL1 signaling activity (>~100 nM)” value was 8 to 12 h. Further, the “plasma membrane (PM) localization of endogenous SWELL1” value in data set [1] is “enhanced”. In addition, the “impaired GSIS (serum insulin, islet perifusion)” value in data set [2] (HFD mice, 21 weeks HFD) is “significantly improved”. For the same compound, in the data set with T2D KKAy mice, the “serum FGF21 increase” value was 2.8 fold and 3 fold; the serum adiponectin result is on record as “unchanged; also recorded: no differences”.

Source of the values: publication PMC8831520, “Small molecule SWELL1 complex induction improves glycemic control and nonalcoholic fatty liver disease in murine Type 2 diabetes” (Nature Communications, 2022).
